From PubChem BioAssay AID2060485 (Molecular Pharmacology Branch, DTP, NCI, 2025)

Tested on: A375 multi-cell spheroids with HUVEC/MSC, viability
Experiment: Anticancer human tumor A375 cell line growth inhibition [GQUAD];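 note: spheroids exposed to compounds for seven days before readout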
Details: for IC50: curve of first compound; for viability, T/C: stronger effect = lower value
Procedure, shortened: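 Viability of tumor cells grown as complex spheroids with endothelial and stromal cells, exposed to drug combinations. Top concentration at or near clinical Cmax (else 10 microM), diluted in half-log increments.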

[1] = second compound 0.0316 µM, first compound 0.0316 µM
[2] = second compound 0.0316 µM, first compound 0.1 µM
[3] = second compound 0.0316 µM, first compound 0.316 µM
[4] = second compound 0.0316 µM, first compound 1 µM
[5] = second compound 0.0316 µM, first compound 3.16 µM
[6] = second compound 0.0316 µM, first compound 10 µM
[7] = second compound 0.1 µM, first compound 0.0316 µM
[8] = second compound 0.1 µM, first compound 0.1 µM
[9] = second compound 0.1 µM, first compound 0.316 µM
[10] = second compound 0.1 µM, first compound 1 µM
[11] = second compound 0.1 µM, first compound 3.16 µM
[12] = second compound 0.1 µM, first compound 10 µM
[13] = second compound 0.316 µM, first compound 0.0316 µM
[14] = second compound 0.316 µM, first compound 0.1 µM
[15] = second compound 0.316 µM, first compound 0.316 µM
[16] = second compound 0.316 µM, first compound 1 µM
[17] = second compound 0.316 µM, first compound 3.16 µM
[18] = second compound 0.316 µM, first compound 10 µM
[19] = second compound 1 µM, first compound 0.0316 µM
[20] = second compound 1 µM, first compound 0.1 µM
[21] = second compound 1 µM, first compound 0.316 µM
[22] = second compound 1 µM, first compound 1 µM
[23] = second compound 1 µM, first compound 3.16 µM
[24] = second compound 1 µM, first compound 10 µM
[25] = second compound 3.16 µM, first compound 0.0316 µM
[26] = second compound 3.16 µM, first compound 0.1 µM
[27] = second compound 3.16 µM, first compound 0.316 µM
[28] = second compound 3.16 µM, first compound 1 µM
[29] = second compound 3.16 µM, first compound 3.16 µM
[30] = second compound 3.16 µM, first compound 10 µM
[31] = second compound 10 µM, first compound 0.0316 µM
[32] = second compound 10 µM, first compound 0.1 µM
[33] = second compound 10 µM, first compound 0.316 µM
[34] = second compound 10 µM, first compound 1 µM
[35] = second compound 10 µM, first compound 3.16 µM
[36] = second compound 10 µM, first compound 10 µM

COc1ncnc(C2CC2)c1-c1ncc2cnn(Cc3ccc(-c4nc(C(F)(F)F)cn4C(C)C)cc3)c2n1 + CN(C)c1ccc(Nc2c3ccc(NC(=O)CCN4CCCC4)cc3nc3cc(NC(=O)CCN4CCCC4)ccc23)cc1
IC50 (second compound 0.0316 µM): > 10000 nM
IC50 (second compound 0.1 µM): > 10000 nM
IC50 (second compound 0.316 µM): > 10000 nM
IC50 (second compound 1 µM): > 10000 nM
IC50 (second compound 3.16 µM): > 10000 nM
IC50 (second compound 10 µM): > 10000 nM
viability, T/C [1]: 108%
viability, T/C [2]: 100%
viability, T/C [3]: 115%
viability, T/C [4]: 104%
viability, T/C [5]: 108%
viability, T/C [6]: 104%
viability, T/C [7]: 105%
viability, T/C [8]: 105%
viability, T/C [9]: 102%
viability, T/C [10]: 103%
viability, T/C [11]: 105%
viability, T/C [12]: 114%
viability, T/C [13]: 103%
viability, T/C [14]: 110%
viability, T/C [15]: 110%
viability, T/C [16]: 101%
viability, T/C [17]: 107%
viability, T/C [18]: 105%
viability, T/C [19]: 109%
viability, T/C [20]: 91%
viability, T/C [21]: 101%
viability, T/C [22]: 112%
viability, T/C [23]: 104%
viability, T/C [24]: 102%
viability, T/C [25]: 109%
viability, T/C [26]: 102%
viability, T/C [27]: 109%
viability, T/C [28]: 104%
viability, T/C [29]: 106%
viability, T/C [30]: 104%
viability, T/C [31]: 93%
viability, T/C [32]: 101%
viability, T/C [33]: 94%
viability, T/C [34]: 98.9%
viability, T/C [35]: 96.1%
viability, T/C [36]: 92.8%

Cc1[nH]c2ccccc2c1CCNCc1ccc(/C=C/C(=O)NO)cc1 + CN(C)c1ccc(Nc2c3ccc(NC(=O)CCN4CCCC4)cc3nc3cc(NC(=O)CCN4CCCC4)ccc23)cc1
IC50 (second compound 0.0316 µM): 156 nM
IC50 (second compound 0.1 µM): 133 nM
IC50 (second compound 0.316 µM): 127 nM
IC50 (second compound 1 µM): 119 nM
IC50 (second compound 3.16 µM): 106 nM
IC50 (second compound 10 µM): 97.7 nM
viability, T/C (second compound 0.0316 µM, first compound 0.000999 µM): 111%
viability, T/C (second compound 0.0316 µM, first compound 0.00316 µM): 101%
viability, T/C (second compound 0.0316 µM, first compound 0.00999 µM): 110%
viability, T/C [1]: 122%
viability, T/C (second compound 0.0316 µM, first compound 0.0999 µM): 76%
viability, T/C [3]: 9.06%
viability, T/C (second compound 0.1 µM, first compound 0.000999 µM): 99.1%
viability, T/C (second compound 0.1 µM, first compound 0.00316 µM): 110%
viability, T/C (second compound 0.1 µM, first compound 0.00999 µM): 124%
viability, T/C [7]: 127%
viability, T/C (second compound 0.1 µM, first compound 0.0999 µM): 64%
viability, T/C [9]: 7.22%
viability, T/C (second compound 0.316 µM, first compound 0.000999 µM): 107%
viability, T/C (second compound 0.316 µM, first compound 0.00316 µM): 110%
viability, T/C (second compound 0.316 µM, first compound 0.00999 µM): 111%
viability, T/C [13]: 114%
viability, T/C (second compound 0.316 µM, first compound 0.0999 µM): 61.5%
viability, T/C [15]: 7.25%
viability, T/C (second compound 1 µM, first compound 0.000999 µM): 104%
viability, T/C (second compound 1 µM, first compound 0.00316 µM): 113%
viability, T/C (second compound 1 µM, first compound 0.00999 µM): 116%
viability, T/C [19]: 110%
viability, T/C (second compound 1 µM, first compound 0.0999 µM): 58%
viability, T/C [21]: 5.35%
viability, T/C (second compound 3.16 µM, first compound 0.000999 µM): 98.4%
viability, T/C (second compound 3.16 µM, first compound 0.00316 µM): 106%
viability, T/C (second compound 3.16 µM, first compound 0.00999 µM): 113%
viability, T/C [25]: 114%
viability, T/C (second compound 3.16 µM, first compound 0.0999 µM): 52.3%
viability, T/C [27]: 5.53%
viability, T/C (second compound 10 µM, first compound 0.000999 µM): 111%
viability, T/C (second compound 10 µM, first compound 0.00316 µM): 98.7%
viability, T/C (second compound 10 µM, first compound 0.00999 µM): 112%
viability, T/C [31]: 106%
viability, T/C (second compound 10 µM, first compound 0.0999 µM): 48.9%
viability, T/C [33]: 3.5%

O=C(NO)c1cnc(N2CCN(S(=O)(=O)c3ccc4ccccc4c3)CC2)nc1 + CN(C)c1ccc(Nc2c3ccc(NC(=O)CCN4CCCC4)cc3nc3cc(NC(=O)CCN4CCCC4)ccc23)cc1
IC50 (second compound 0.0316 µM): 188 nM
IC50 (second compound 0.1 µM): 191 nM
IC50 (second compound 0.316 µM): 186 nM
IC50 (second compound 1 µM): 190 nM
IC50 (second compound 3.16 µM): 189 nM
IC50 (second compound 10 µM): 189 nM
viability, T/C [1]: 121%
viability, T/C [2]: 105%
viability, T/C [3]: 4.84%
viability, T/C [4]: 0.29%
viability, T/C [5]: 0.27%
viability, T/C [6]: 0.29%
viability, T/C [7]: 107%
viability, T/C [8]: 108%
viability, T/C [9]: 5.35%
viability, T/C [10]: 0.26%
viability, T/C [11]: 0.22%
viability, T/C [12]: 0.25%
viability, T/C [13]: 108%
viability, T/C [14]: 103%
viability, T/C [15]: 4.36%
viability, T/C [16]: 0.25%
viability, T/C [17]: 0.21%
viability, T/C [18]: 0.23%
viability, T/C [19]: 104%
viability, T/C [20]: 110%
viability, T/C [21]: 5.11%
viability, T/C [22]: 0.26%
viability, T/C [23]: 0.2%
viability, T/C [24]: 0.22%
viability, T/C [25]: 103%
viability, T/C [26]: 110%
viability, T/C [27]: 4.25%
viability, T/C [28]: 0.25%
viability, T/C [29]: 0.22%
viability, T/C [30]: 0.24%
viability, T/C [31]: 102%
viability, T/C [32]: 107%
viability, T/C [33]: 6.02%
viability, T/C [34]: 0.26%
viability, T/C [35]: 0.93%
viability, T/C [36]: 0.25%
